The record followed here is PMC6928796, “Near-Infrared Markers based on Bacterial Phytochromes with Phycocyanobilin as a Chromophore” (International Journal of Molecular Sciences, 2019).

Test [1] addresses T1, iRFP713 (Rhodopseudomonas palustris, UniProt G1FNL7, C15S).
T1 construct: gene iRFP
As to the kind of experiment: absorption and fluorescence spectroscopy; BV/PCB competition. It counts as binding. The following applies: not covalent; overnight with both tetrapyrroles, BV to PCB molar ratio 0.02 to 80.

For test [2], the target named is T1, iRFP713. As to the kind of experiment: absorption, fluorescence, zinc-stained SDS-PAGE; BV/PCB competition. Conditions: not covalent; apoprotein with 2-fold excess PCB, pH 8.0, 4 °C. The format is binding.

Consider `C=CC1=C(C)C(=Cc2[nH]c(C=C3N=C(C=C4NC(=O)C(C)=C4C=C)C(C)=C3CCC(=O)O)c(CCC(=O)O)c2C)NC1=O` [BV, biliverdin IXα], for which the “absorption and fluorescence spectroscopy; BV/PCB competition” value at iRFP713 [1] is listed as “The binding affinity of BV ligand to iRFP713/C15S”.
`C/C=C1/C(=C/c2[nH]c(/C=C3N=C(/C=C4\NC(=O)C(CC)=C4C)C(C)=C\3CCC(=O)O)c(CCC(=O)O)c2C)NC(=O)[C@@H]1C` [PCB, phycocyanobilin]: the “absorption, fluorescence, zinc-stained SDS-PAGE; BV/PCB competition” value on iRFP713 [2] was “iRFP713/C15S, lacking the conserved Cys15 residue, forms a fluorescent complex with PCB”.
